Test results as given in US9439906B2, “Dosing regimen associated with long acting injectable paliperidone esters” (Janssen Pharmaceutica NV, priority 2007, dated 2016).

Tests used:
[1] = Pharmacokinetic profile of gluteal versus deltoid i.m. injections of paliperidone palmitate 100 mg-eq. (four injections); format: in vivo, human
Protocol: This study was performed to characterize and compare the pharmacokinetic profile of paliperidone palmitate (formulated as described above) following four intramuscular injections in the deltoid or gluteal muscle.
Plasma samples for pharmacokinetic analyses were collected.

[2] = Safety in phase 3 placebo-controlled study R092670-PSY-3007; format: in vivo, human; details: for average increase in body weight: placebo −0.2 kg; for Akathisia (EPS-related adverse event): placebo 4.9%; for mean change in BMI from baseline to end point: placebo −0.1
Protocol: Safety was monitored by the evaluation of adverse events, extrapyramidal symptom (EPS) rating scales (Abnormal Involuntary Movement Scale [AIMS], Barnes Akathisia Rating Scale [BARS], Simpson and Angus Rating Scale [SAS]) scores, clinical laboratory test results, vital signs measurements, electrocardiograms (ECGs), and physical examination findings. In addition, the tolerability of injections was assessed; the investigators evaluated injection sites and the subjects assessed injection pain.
The number and percentage of subjects with treatment-emergent adverse events were summarized. Adverse events of potential clinical interest were summarized separately, including events related to EPS or changes in serum glucose or prolactin levels.
Changes from baseline in clinical laboratory tests, vital sign measurements, ECGs, body weight, BMI, and EPS scale scores were summarized by treatment group. Prolactin levels were summarized by sex. Subjects with potentially abnormal values or changes in clinical laboratory tests, vital signs, orthostatic parameters, and ECG parameters were summarized based on predefined criteria. Frequency distributions were presented for the investigator's evaluation of the injection site, and descriptive statistics were presented for VAS scores corresponding to the subject's evaluation of injection pain.

[3] = Treatment-emergent adverse events in the single-dose dose-proportionality study; details: single dose 25-150 mg-eq.
Excerpt: The subjects were assigned into eight treatment groups: paliperidone palmitate 25 (n=48), 50 (n=50), 100 (n=51) or 150 (n=52) mg-eq. injected into either the deltoid or gluteal muscle.

[4] = Pharmacokinetics in phase 3 study R092670-PSY-3007; format: in vivo, human; details: Day 8, 3 dose groups
Protocol: Subjects without source documentation of previous exposure to at least 2 doses of oral risperidone or paliperidone extended-release (ER), at least 1 dose of i.m. RISPERDAL® CONSTA® or paliperidone palmitate, or who were not currently receiving an antipsychotic medication were given 4 to 6 days of paliperidone ER 6 mg/day (or the option of oral risperidone 3 mg/day for subjects in Malaysia) for tolerability testing. Subjects who had source documentation of previous exposure to the above medications and were currently taking another antipsychotic regimen continued their current treatment through Day-1. At the beginning of the double-blind treatment period, subjects were randomly assigned in a 1:1:1:1 ratio to 1 of 4 treatment groups: placebo or paliperidone palmitate 25 mg eq., 100 mg eq., or 150 mg eq. Study medication was administered as 4 doses: an initial i.m. injection of 150 mg eq. of paliperidone palmitate or placebo followed by 3 fixed i.m. doses of placebo or paliperidone palmitate [25, 100, or 150 mg eq.] on Days 8, 36, and 64. The initial injection of study medication was given in the deltoid muscle. Subsequent injections were given either in the deltoid or gluteal muscle at the discretion of the investigator. […] Efficacy and safety were evaluated regularly throughout the study. […]

[5] = Safety and local tolerability in the gluteal versus deltoid multiple-dose study; details: for mean injection site pain VSA score: day 1, 8 hours after injection
[6] = Comparison of single-dose PK profile in the deltoid to that in the gluteal (summary of phase 1 studies); format: in vivo, human
Protocol: The plasma concentration-time profile of paliperidone after single i.m. injection of the paliperidone palmitate formulation at 25-150 mg-eq. has been documented in several studies (Table 4). Details of how the comparison of injection sites study and the dose proportionality studies were performed are provided in Examples 2 and 3.

[7] = 100 mg-eq., combined injection sites

CCCCCCCCCCCCCCCC(=O)OC1CCCn2c1nc(C)c(CCN1CCC(c3noc4cc(F)ccc34)CC1)c2=O (racemic) [paliperidone palmitate, (±)-3-[2-[4-(6-fluoro-1,2-benzisoxazol-3-yl)-1-piperidinyl]ethyl]-6,7,8,9-tetrahydro-2-methyl-4-oxo-4H-pyrido[1,2-α]pyrimidin-9-yl hexadecanoate]
median AUC∞, deltoid versus gluteal ([1]; after four injections): similar
Relative exposure after the fourth injection versus after the second injection ([1]; both deltoid and gluteal): slightly lower
1 or more serious TEAE, (%) ([2]; 25 mg eq. group (N = 160)): (9.4) %
Possibly related TEAE, (%) ([2]; 25 mg eq. group (N = 160)): (28.1) %
TEAE leading to permanent stop, (%) ([2]; 25 mg eq. group (N = 160)): (6.3) %
TEAE, (%) ([2]; 25 mg eq. group (N = 160)): (63.1) %
average increase in body weight ([2]; 25 mg eq. group, 13 weeks): 0.4 kg
Akathisia (EPS-related adverse event) ([2]; 25 mg eq. group): 1.3%
mean change in BMI from baseline to end point ([2]; 25 mg eq. group): 0.1 kg/m^2
1 or more serious TEAE, (%) ([2]; 100 mg eq. group (N = 165)): (13.3) %
Possibly related TEAE, (%) ([2]; 100 mg eq. group (N = 165)): (29.7) %
TEAE leading to permanent stop, (%) ([2]; 100 mg eq. group (N = 165)): (6.1) %
TEAE, (%) ([2]; 100 mg eq. group (N = 165)): (60.0) %
average increase in body weight ([2]; 100 mg eq. group, 13 weeks): 0.7 kg
Akathisia (EPS-related adverse event) ([2]; 100 mg eq. group): 4.8%
mean change in BMI from baseline to end point ([2]; 100 mg eq. group): 0.3 kg/m^2
tolerability ([2]; 150 mg eq. deltoid then 25, 100 or 150 mg eq. Days 8, 36, 64, 13 weeks): generally well tolerated
1 or more serious TEAE, (%) ([2]; 150 mg eq. group (N = 163)): 8.0%
Possibly related TEAE, (%) ([2]; 150 mg eq. group (N = 163)): 31.3%
TEAE leading to death, (%) ([2]; 150 mg eq. group (N = 163)): 0.6%
TEAE leading to permanent stop, (%) ([2]; 150 mg eq. group (N = 163)): 8.0%
TEAE, (%) ([2]; 150 mg eq. group (N = 163)): 63.2%
average increase in body weight ([2]; 150 mg eq. group, 13 weeks): 1.4 kg
Akathisia (EPS-related adverse event) ([2]; 150 mg eq. group): 5.5%
mean change in BMI from baseline to end point ([2]; 150 mg eq. group): 0.5 kg/m^2
Local injection site tolerability ([2]; all dose groups): good
incidence of treatment-emergent EPS-related adverse events ([2]; all dose groups): low and comparable to placebo
ECG: clinically significant QTc prolongation ([2]; doses up to 150 mg eq.): did not demonstrate evidence of clinically significant QTc prolongation
subjects with maximum QTcLD value >480 ms or maximal change in QTcLD >60 ms ([2]; during the study): No subject
subjects with weight increase of at least 7% relative to baseline ([2]; highest dose (150 mg eq.), placebo 5%): 13%
prolactin levels ([2]; versus placebo, largest increase in the 150 mg eq. group): increases in prolactin levels were observed with greater frequency
Treatment-emergent AE: headache [3]: 7%
Treatment-emergent AE: insomnia [3]: 5%
Treatment-emergent AE: schizophrenia [3]: 6%
Treatment-emergent AE: tachycardia [3]: 10%
deaths [3]: No deaths
subjects discontinued due to TEAs [3]: 2%
median paliperidone plasma concentrations in high BMI compared to low BMI (<25 kg/m^2) subjects [4]: lower
adverse event: diastolic hypotension [5, 7]: 12%
adverse event: hypotension [5, 7]: 14%
adverse event: injection site pain [5, 7]: 14%
adverse event: orthostatic hypotension [5, 7]: 24%
deaths in the study ([5]; 100 mg-eq., four injections): no deaths
serious adverse events (worsening of psychosis) that led to discontinuations ([5]; 100 mg-eq., four injections): four
tolerability ([5]; 100 mg-eq., four injections): well tolerated
mean injection site pain VSA score ([5]; deltoid): 10.8
mean injection site pain VSA score ([5]; gluteal): 3.3
increase in Cmax versus dose ([6]; both injection sites, doses greater than 50 mg eq.): slightly less than dose proportional
median apparent half-life between injection sites ([6]; single dose, deltoid vs gluteal): comparable
total exposure (AUC∞) of paliperidone versus dose ([6]; single-dose 25 to 150 mg eq., deltoid and gluteal): increased proportionally with dose
